Tests used:
[1] = test system: indigenous stool microflora; test: DGGE of PCR-amplified bacterial ribosomal RNA genes from stool (Example 3); type: in vivo, mice; conditions: subcutaneous clindamycin
Candida glabrata A239 = test: Minimum-inhibitory concentration for Candida glabrata A239; type: cell-based; conditions: clinical isolate A239
Procedure: Pathogens Studied: E. faecium C68, a previously described VanB-type clinical VRE isolate, was used for the following murine VRE experiments (Donskey et al., J. Microbial. Meth. 1807: 1-8, 2003). […] Klebsiella pneumoniae P62 is a clinical isolate that produces an SHV type extended-spectrum β-lactamase (ESBL). Candida glabrata A239 is a clinical isolate with a fluconazole minimum-inhibitory concentration of 2 μg/mL.

[2] = test system: clinical isolate VanA strain of E. faecium (VRE); test: VRE suppression in a mouse model (Example 1); type: in vivo, mice
Excerpt: (§1) Mice were colonized with a clinical isolate VanA strain of E. faecium (VRE) isolated from a septicemic patient. A single inoculation of 5×10^8 cfu VRE by oral gavage (Day 0) was followed by treatment with vancomycin in the drinking water to maintain colonization. On day 22, each group received the same vancomycin-containing drinking water. […] The control group consisted of five mice, while the ramoplanin group consisted of four mice.

Total Enterococci = test: VRE suppression in a mouse model (Example 1), total enterococci in faeces; type: in vivo, mice
Excerpt: as §1

[3] = Day 22, prior to ramoplanin therapy
[4] = Day 29, completion of ramoplanin therapy
[5] = Day 36, 7 days after completion of ramoplanin therapy

Q: For `CCC[C@@H]1C[C@@H](C(=O)N[C@@H]([C@H]2O[C@H](SC)[C@H](O)[C@@H](O)[C@H]2O)[C@H](C)Cl)N(C)C1` [clindamycin], which “stool DGGE patterns, mean similarity indices in comparison to pre-treatment patterns” value [1] is on record?
A: 17%

Q: For `OC(Cn1cncn1)(Cn1cncn1)c1ccc(F)cc1F` [fluconazole], which minimum-inhibitory concentration (Candida glabrata A239) is on record?
A: 2 µg/mL

Q: For `CN[C@H](CC(C)C)C(=O)N[C@H]1C(=O)N[C@@H](CC(N)=O)C(=O)N[C@H]2C(=O)N[C@H]3C(=O)N[C@H](C(=O)N[C@H](C(=O)O)c4cc(O)cc(O)c4-c4cc3ccc4O)[C@H](O)c3ccc(c(Cl)c3)Oc3cc2cc(c3O[C@@H]2O[C@H](CO)[C@@H](O)[C@H](O)[C@H]2O[C@H]2C[C@](C)(N)[C@H](O)[C@H](C)O2)Oc2ccc(cc2Cl)[C@H]1O` [vancomycin], which “Enterococci: VRE” value [2, 3] is on record?
A: 9.7 log 10 cfu/g faeces

Q: And the “Enterococci: VRE” value [2, 4]?
A: 9.4 log 10 cfu/g faeces

Q: And the “% Mice with VRE” value ([2]; Day 29, completion of ramoplanin therapy (15 mg/kg/day in drinking water, with 25 mg/kg/day vancomycin))?
A: 100%

Q: What about the “% Mice with VRE” value [2, 5] of the same compound?
A: 100%

Q: And the “Enterococci: VRE” value [2, 5]?
A: 9.3 log 10 cfu/g faeces

Q: And the “Enterococci: Total Enterococci” value (Total Enterococci; [3])?
A: 9.6 log 10 cfu/g faeces

Q: What about the “Enterococci: Total Enterococci” value (Total Enterococci; [4]) of the same compound?
A: 9.3 log 10 cfu/g faeces

Q: And the “Enterococci: Total Enterococci” value (Total Enterococci; [5])?
A: 9.6 log 10 cfu/g faeces

Reference: patent US20100113334A1, “METHODS FOR REDUCING OR PREVENTING TRANSMISSION OF NOSOCOMIAL PATHOGENS IN A HEALTH CARE FACILITY” (priority 2003, published 2010)
